{"source": "patent US9326956B2", "about": "“Methods for improving brain development and cognitive function using beta-hydroxy-beta methylbutyrate” (Abbott Laboratories, priority 2011, dated 2016)", "key": {"[1]": {"assay": "HMB concentration over time in brain interstitial fluid (hippocampus microdialysis) after oral administration", "assay_type": "in vivo, Sprague-Dawley rats", "method": "In this Example, the appearance of HMB and its concentration over time in brain interstitial fluid were analyzed after oral administration of HMB.\nInitially, Sprague-Dawley rats (Charles River, France) weighing 400-500 g were housed in cages at constant room temperature (22±2° C.) and 45-55% humidity under a regular 12-hour light/dark schedule. Food and water were freely available. Procedures involving animals and their care were conducted in conformity with the institutional guidelines that are in compliance with national laws and EC policies for the Care and Use of Laboratory Animals (RD 2101-2005, 86/609/CEE).\nA guide cannula was stereotaxically inserted into the hippocampus area of each anesthetized rat at the coordinates described in a stereotaxic atlas for rats. The rats were allowed to recover from surgery for at least three days. On the first day of the experiment, a brain microdialysis probe (MD-2204, BR-4, 4 mm membrane, available from BASi, West Lafayette, Ind.) was inserted into the guide cannula of each rat. The probe was perfused with Ringer's solution (aCFS Harvard apparatus, #597316) at a constant rate of 2 μl/min. The rat was left in the cage with space for relatively free movement. Samples of dialysate were automatically collected every twenty minutes. A bolus dose of HMB (250 mg/kg body weight) was given by gavage 100 min after starting the experiment and sampling was continued for another 160-220 min.\nHMB was measured using UPLC-MS. Specifically, samples of 30-40 μl in aCSF were microfiltered through a 0.2 μm nylon filter, diluted with an equal amount of water, and then injected into the UPLC-TQD (Acuity-TQD system available from Waters Corporation, Milford, Mass.). HMB was analyzed using a BEH Hillic column 1.7 μm; 2.1×150 mm using a gradient consisting of H2O:MeCN 0.1% formic acid. The mass spectrometer was set to Ion Mode ES+."}, "[2]": {"system": "Neuro-2A cells", "assay": "Rate of protein synthesis, incorporation of [3H]-tyrosine into cellular protein pool", "assay_type": "cell-based", "conditions": "HMB vs. Control, FIG. 4", "method": "The effect of HMB on the rate of protein synthesis in Neuro-2A cells was determined by measuring the incorporation of [3H]-tyrosine into cellular protein pool. The phosphorylative status of mTOR and up/down-protein kinases (Akt, ERK 1/2) was determined by western blot. The cell proliferation/viability was determined with the MTT (3-(4,5-dimethylthiazol-2-yl)-2,5-diphenyltetrazolium bromide) colorimetric assay. Data are expressed as mean±SEM. Student t-test was used to analyze the results."}, "[3]": {"system": "MEF2 transcription factor", "assay": "MEF2-dependent transcription luciferase activity (pGL3-4xMEF transfection)", "assay_type": "cell-based", "conditions": "Neuro 2A cells; inhibitor added with HMB; FIGS. 5B-5D", "method": "For the transfection experiments in this Example, Neuro-2A cells were used at 80-90% confluence grown in Dulbecco's Modified Eagle's medium (DMEM). Cells were exposed for 5 hours to plasmid pGL3-4×MEF, which contains 4 copies in tandem of the MEF2D binding DNA sequence prior to the sequence of DNA which codes for firefly luciferase. Effectors were added to the medium for 18 h and luciferase activity was determined. For the study of inhibition of signaling factors, inhibitors of the phosphatidyl-inositol 3 kinase (LY294002), ERK 1/2 (PD98059) and mTORC1 activations (rapamycin) were added to the cells.\nData are expressed as mean±SEM. Student t-test was used to analyze the results."}}}
{"smiles": "CC(C)(O)CC(=O)O", "note": "[HMB, beta-hydroxy-beta-methylbutyrate]", "values": [{"measurement": "crossing of the blood brain barrier", "setting": "[1]; oral administration, microdialysis model in rats", "value": "able to cross the blood brain barrier"}, {"measurement": "maximum concentration of HMB measured in brain microdialysates", "setting": "[1]; rat 1, 250 mg/kg bolus by gavage", "value": 10.5, "unit": "ppm"}, {"measurement": "time after administration at which HMB appeared in the brain", "setting": "[1]; rat 1, 250 mg/kg bolus by gavage, brain microdialysate (fraction 7)", "value": 40, "unit": "min"}, {"measurement": "HMB concentration level at end of sampling", "setting": "[1]; rat 1, more than 2.5 hours after the gavage", "value": "had not decreased"}, {"measurement": "maximum concentration of HMB in brain microdialysates", "setting": "[1]; rat 2, 250 mg/kg bolus by gavage", "value": "more than 4 ppm"}, {"measurement": "fraction in which HMB was detected for the first time", "setting": "[1]; rat 2, 250 mg/kg by gavage at fraction 5, 20 min fractions", "value": "fraction 7"}, {"measurement": "HMB concentration level at end of experiment", "setting": "[1]; rat 2, more than 3.5 h after the gavage", "value": "had not yet reached basal level"}, {"measurement": "increase on the protein synthesis", "setting": "[2]", "value": 20, "unit": "%"}]}
{"smiles": "COc1cccc(-c2cc(=O)c3ccccc3o2)c1N", "note": "[PD98059]", "values": [{"measurement": "effect of inhibitor on the HMB-mediated increase in MEF2", "setting": "[3]", "value": "totally blocked"}]}
